How the values were obtained:
[1] = IV dosing of rats (cassette), plasma concentration vs. time by LC/MS/MS; conditions: for Ratio of b/a: ratio of plasma concentrations b to a (tigemonam), rats, IV
Description: A cohort of three rats was IV dosed using 2 mg/kg cassette IV dosing. […] Samples were withdrawn at various time points indicated below and processed using the following procedure. A 50 μL rat plasma sample was transferred to a well of a 96 well-plate, 20 μL of 0.1 ng/μL of Losartan (internal standard) in acetonitrile was added and 300 μL of acetonitrile/formic acid (100/2). The sample was then vortexed and centrifuged at 300 rpm for 5 minutes. Then 200 μL of the supernatant was mixed with 200 μL of double distilled water and was injected (5 μL) on a phenomex Polar-RP 80A column (75×2.0 mm), which was run at 30° C. at a flow rate of 600 μL/minute with a mobile phase A of acetonitrile/formic acid 100/0.02 and a mobile phase B of water/formic acid 100/0.02.
Each time point above represents a value obtained by averaging the measured plasma concentration of three rats.

[2] = Oral dosing of rats (cassette), plasma concentration vs. time by LC/MS/MS; conditions: for Ratio of b/a: ratio of plasma concentrations b to a (tigemonam), oral
Description: Samples were withdrawn at various time points indicated below and processed using the following procedure. A 50 μL rat plasma sample was transferred to a well of a 96 well-plate, 20 μL of 0.1 ng/μL of Losartan (internal standard) in acetonitrile was added and 300 μL of acetonitrile/formic acid (100/2). The sample was then vortexed and centrifuged at 300 rpm for 5 minutes. Then 200 μL of the supernatant was mixed with 200 μL of double distilled water and was injected (5 μL) on a phenomex Polar-RF 80A column (75×2.0 mm), which was run at 30° C. at a flow rate of 600 μL/minute with a mobile phase A of acetonitrile/formic acid 100/0.02 and a mobile phase B of water/formic acid 100/0.02. The eluate was analyzed by LC/MS/MS (electrospray) to provide the following values of plasma concentration vs. time listed in Table 1, which were then plotted to yield the graph illustrated in FIG. 2.
Each time point above represents a value obtained by averaging the measured plasma concentration of three rats. […] Other compounds may also be tested in the above assay.

SMILES: [2H]C([2H])([2H])C1(C([2H])([2H])[2H])[C@H](NC(=O)/C(=N\OCC(=O)O)c2csc(N)n2)C(=O)N1OS(=O)(=O)O [b]
- effect of deuteration of tigemonam on IV bioavailability ([1]; rat, in vivo, iv): no effect
- plasma levels compared with tigemonam ([1]; rat, in vivo, iv, 1 mg/kg): almost identical
- r = b − a ([1]; rat, in vivo, iv, 0.167 h): 235
- r = b − a ([1]; rat, in vivo, iv, 0.5 h): 19
- r = b − a ([1]; rat, in vivo, iv, 1 h): −31
- r = b − a ([1]; rat, in vivo, iv, 2 h): 21
- r = b − a ([1]; rat, in vivo, iv, 4 h): 2
- r = b − a ([1]; rat, in vivo, iv, 6 h): −2
- r = b − a ([1]; rat, in vivo, iv, 8 h): 0
- r = b − a ([1]; rat, in vivo, iv, 24 h): 0
- Ratio of b/a ([1]; 0.167 hours): 1.04
- Ratio of b/a ([1]; 0.5 hours): 1.01
- Ratio of b/a ([1]; 1 hours): .9
- Ratio of b/a ([1]; 2 hours): 1.14
- Ratio of b/a ([1]; 4 hours): 1.06
- Ratio of b/a ([1]; 6 hours): .6
- effect of deuteration of tigemonam on oral bioavailability ([2]; rat, in vivo, po): increase
- plasma level greater than the plasma level of tigemonam ([2]; rat, in vivo, po, 5 mg/kg): at least 20%
- r = b − a ([2]; rat, in vivo, po, 0.167 h): 266
- r = b − a ([2]; rat, in vivo, po, 0.5 h): 694
- r = b − a ([2]; rat, in vivo, po, 1 h): 531
- r = b − a ([2]; rat, in vivo, po, 2 h): 175
- r = b − a ([2]; rat, in vivo, po, 4 h): 55
- r = b − a ([2]; rat, in vivo, po, 6 h): 4
- r = b − a ([2]; rat, in vivo, po, 8 h): 1
- r = b − a ([2]; rat, in vivo, po, 24 h): 0
- Ratio of b/a ([2]; rats, 0.167 hours): 1.19
- Ratio of b/a ([2]; rats, 0.5 hours): 1.24
- Ratio of b/a ([2]; rats, 1 hours): 1.25
- Ratio of b/a ([2]; rats, 2 hours): 1.26
- Ratio of b/a ([2]; rats, 4 hours): 1.48
- Ratio of b/a ([2]; rats, 8 hours): 1.25
- Ratio of b/a ([2]; rats, C6 hours): 1.15
- oral absorption compared with tigemonam ([2]; rats, oral cassette dosing, 5 mg/kg each): increased level

From patent publication US10093666B2, “Deuterated O-sulfated beta lactam hydroxamic acids and deuterated N-sulfated beta lactams” (ARIXA PHARMACEUTICALS, INC., priority 2016, dated 2018)
